Literature values as cited in US9259392B2, “Cochleate compositions directed against expression of proteins” (Rutgers, The State University of New Jersey, priority 2003, dated 2016).

Assays:
pathogenic fungi = conditions: cited from earlier work
[1] = molecular target: Aspergillus fumigatus H^+-ATPase; conditions: cited from earlier work

SMILES | antifungal activity (pathogenic fungi) | IC50 [1]
CCN1CCC(O)(C=Cc2ccc(Cl)cc2)C(C(=O)C=Cc2ccc(Cl)cc2)C1.Cl (centres unmarked) [NC1175, 3-[3-(4-chlorophenyl)-2-propenoyl]-4-[2-(4-chlorophenyl)vinylene]-1-ethyl-4-piperidinol hydrochloride] | antifungal activity against a wide spectrum of pathogenic fungi | 
[O]=[V]([OH])([OH])[OH] [orthovanadate] |  | ~0.8 µM
